Laboratory results taken from patent US6017933A, “Mannich bases of conjugated styryl ketones” (University of Saskatchewan Technologies Inc., priority 1999, dated 2000).
Values after ≈ are worked out from the molar mass of the structure shown. “Also recorded” adds a separate entry of the source. Like-named read-outs stand apart in the source and are kept apart here.

Columns and labels:
[1] = tested on: P388 lymphocytic leukemia; conditions: 20 mg/kg intraperitoneally for five days; cited from earlier work
[2] = tested on: Aspergillus fumigatus conidia; assay: Kill-curve experiment, Aspergillus fumigatus conidia; type: cell-based; conditions: Aspergillus fumigatus; 5 μm AMB or 5 μm ITZ, within 24 hr
Description: Kill-Curve Experiment: 5 ml conidial suspension each of the AMB-, and ITZ-susceptible (W73355) and the resistant (AB16.4 and ITZ70) isolates prepared in PYG broth (1×10^6 conidia/ml) was incubated at 35° C. in the presence of 5 μm of AMB or 5 μm ITZ or 50 μm Compound 9b. At various time intervals, 0.1 ml aliquots of the conidial suspension were removed, diluted appropriately to obtain 10^2 to 10^4 fold dilution, and 0.1 ml aliquots were spread in duplicate on PYG agar plates. […] Identical treatment of the conidial suspension in the absence of the drug was used as the growth control.

Aspergillus fumigatus [3] = assay: Murine pulmonary aspergillosis model; type: in vivo, Aspergillus fumigatus in DBA/2J female mice; conditions: 2 mg/kg/day
Description: In vivo susceptibility studies: DBA/2J female mice (Jackson Laboratories) weighing 20-23 grams (≈6 weeks old) were used. The mice were immunosuppressed by 3 consecutive subcutaneous injections (0.5 ml each) of cortisone acetate (250 mg/kg; Sigma Chemical Company) in sterile distilled water containing 0.1% Tween 80. The immunosuppressed mice were anesthetized by exposing to ether in a desiccator for 45±5 seconds and infected with 20 μl inoculum containing 1×10^6 conidia delivered to the nares of the animals as a single droplet from a micropipet. Compound 9b and AMB were dissolved in dimethyl sulfoxide (DMSO) and administered 24 hr post infection by intraperitoneal injection in 0.2 ml PBS per dose. […] The efficacy of chemotherapy was assessed by determining percent survival and the fungal load (CFU/lungs) of infected animals as determined by semiquantitative organ culture.

Candida albicans = conditions: C. albicans; cited from earlier work
Aspergillus fumigatus [4] = assay: MIC and MLC, Aspergillus fumigatus, broth macrodilution; conditions: Aspergillus fumigatus, 48 h
[5] = tested on: AMB-resistant Aspergillus fumigatus; assay: MIC and MLC, AMB-resistant Aspergillus fumigatus, broth macrodilution; conditions: 48 h
[6] = tested on: ITZ-resistant Aspergillus fumigatus; assay: MIC and MLC, ITZ-resistant Aspergillus fumigatus, broth macrodilution; conditions: 48 h
[7] = tested on: P388 lymphocytic leukemia; assay: Murine P388 lymphocytic leukemia in vivo screen
Description: In order to evaluate whether these promising results could be translated into in vivo activity, two representative compounds 9d and 10a were chosen. […] These two compounds were examined in the murine P388 screen and against certain human tumors in athymic mice.
(§1) The compounds were examined by the Developmental Therapeutics Program, National Cancer Institute, U.S.A. The murine P388 lymphocytic leukemia assay was conducted by a reported known method and the maximum ILS figures for 9d and 10a were 5 and 20% respectively using doses of 54 and 6.7 mg/kg respectively. An increase of 20% or more in the life spans is considered to be statistically significant. A reference drug 5-fluorouracil has an ILS of >35 using a dose of 20 mg/kg when given intraperitoneally for five days. Passage of human tumors in athymic mice was undertaken by a known method. No definitions of activity are available but as a general rule compounds causing a 60% reduction in tumor weights in one of these screens would be evaluated further.

COLO 205 [8] = assay: COLO 205 human colon tumor xenograft in athymic mice; type: in vivo; conditions: COLO 205; 16.8 mg/kg
Description: as §1

KM12 = KM12 human colon tumor xenograft in athymic mice; type: in vivo
Description: as §1

CAKI-1 [9] = assay: CAKI-1 human renal tumor xenograft in athymic mice; type: in vivo; conditions: 16.8 mg/kg
Description: as §1

P388 cells = assay: Cytotoxicity, murine P388 leukemic cells (P388 D1); conditions: for IC50: read-out: P388 cells IC50
human tumors [10] = assay: Cytotoxicity, human tumor cell line panel (approximately 55 lines); conditions: for IC50: read-out: human tumors IC50, mean graph midpoint, approximately 55 cell lines, hydrobromide salts used for 4a, 11a-e
L1210 cells = assay: Cytotoxicity, murine L1210 leukemic cells; type: cell-based; conditions: Mus musculus, mean
human tumors [11] = tested on: human tumors
CEM cells = assay: Cytotoxicity, CEM human T-lymphocytes; conditions: for IC50: Homo sapiens, CCRF-CEM, read-out: CEM cells IC50; for TIL1210 (CEM cells): IC50 T-lymphocytes (CEM)/IC50 L1210; for TIP388 (CEM cells): IC50 T-lymphocytes (CEM)/IC50 P388; for TIht (CEM cells): IC50 T-lymphocytes (CEM)/IC50 human tumors
Molt 4/C8 cells = assay: Cytotoxicity, Molt 4/C8 human T-lymphocytes; conditions: for TIL1210 (Molt 4/C8 cells): IC50 T-lymphocytes (Molt 4/C8)/IC50 L1210; for TIP388 (Molt 4/C8 cells): IC50 T-lymphocytes (Molt 4/C8)/IC50 P388; for IC50: read-out: Molt 4/C8 cells IC50
COLO 205 [12] = conditions: in vivo; cited from earlier work
SW-620 = conditions: in vivo; cited from earlier work
NCI-H522 = conditions: in vivo; cited from earlier work
LOX IMVI = conditions: in vivo; cited from earlier work
CAKI-1 [13] = conditions: in vivo; cited from earlier work
human Jurkat T cells [14] = assay: Growth inhibition of Jurkat T cells, trypan blue exclusion test; type: cell-based; conditions: 48 h, read-out: growth of Jurkat T cells inhibited by 50% (IC50)
Description: All cell cultures used were maintained in RPMI 1640 medium, pH 7.4 supplanted with 10% fetal bovine serum and 50 μg/ml of gentamycin in 25 ml culture flasks at 37° C. in a humidified gas mixture of 5% carbon dioxide balanced with air and were passaged three times a week.
Cell viability was determined by the trypan blue exclusion test according to a literature procedure (Duke and Cohen, 1992). […] A flask containing ~10^6 cells/ml and 8 or […] of DMSO was used as the control. […] After 48 hours, cells were counted using a haemocytometer. The percentage of growth inhibition was calculated as follows: (C-T/C)×100 where C is the mean cell number in the control and T is the mean cell number in each treatment. […] All experiments were performed in triplicate.

human Jurkat T cells [15] = assay: DNA fragmentation by agarose gel electrophoresis; type: cell-based; conditions: Compound 9d 6 and 10 μM; melphalan 10 μM
human Jurkat T cells [16] = assay: Apoptosis, fluorescence microscopy with acridine orange and ethidium bromide

Compound: O=c1[nH]cc(F)c(=O)[nH]1 [5-fluorouracil]
- ILS, murine P388 (reference drug) [1]: > 35

Compound: C[C@@H]1[C@H](O)[C@@H](C)/C=C/C=C/C=C/C=C/C=C/C=C/C=C/[C@H](O[C@@H]2O[C@H](C)[C@@H](O)[C@H](N)[C@@H]2O)C[C@@H]2O[C@](O)(C[C@@H](O)C[C@@H](O)[C@H](O)CC[C@@H](O)C[C@@H](O)CC(=O)O[C@H]1C)C[C@H](O)[C@H]2C(=O)O [Amphotericin B]
- killing at 5 µM [2]: ≥ 99%
- reduction of CFU/lung (Aspergillus fumigatus [3]): ≈ 66%
- mean MIC (Candida albicans): ~0.6 μm
- MIC (Aspergillus fumigatus [4]; read-out: MIC Mean ± SD): 1.32 ± 0.63 µM (≈ 1.22 µg/mL)
- MIC (Aspergillus fumigatus [4]; read-out: MIC Range): 0.55 to 2.22 µM (≈ 0.508 to 2.05 µg/mL)
- MIC ([5]; read-out: MIC Mean ± SD): 6.64 ± 3.47 µM (≈ 6.14 µg/mL)
- MIC ([5]; read-out: MIC Range): 4.42 to 17.7 µM (≈ 4.08 to 16.4 µg/mL)
- MIC ([6]; read-out: MIC Mean ± SD): 0.7 ± 0.39 µM (≈ 0.647 µg/mL)
- MIC ([6]; read-out: MIC Range): 0.27 to 1.11 µM (≈ 0.25 to 1.03 µg/mL)

Compound: CC[N+]1(C)CCC(O)(/C=C/c2ccccc2)C(C(=O)/C=C/c2ccccc2)C1 (stereo not shown) [Compound 10a]
- maximum ILS / increase in life span, murine P388 ([7]; 6.7 mg/kg): 20%
- activity in the murine P388 screen ([7]; in words): marginal potency
- % ILS (COLO 205 [8]): 14%
- percent reduction in median tumor weight (COLO 205 [8]): 20%
- % T/C (KM12; 16.8 mg/kg): 45%
- % ILS (KM12; 25 mg/kg): 5%
- % ILS (CAKI-1 [9]): 6%
- % T/C (CAKI-1 [9]): 43%
- IC50 (P388 cells): 2.27 µM
- Selective toxicity towards leukemia (human tumors [10]; human tumor screen): Selective toxicity towards leukemia was observed; also recorded: preferential cytotoxicity to colon and leukemic cells respectively
- IC50 (human tumors [10]): 8.31 µM

Compound: CC[N+]1(C)CCC(O)(/C=C/c2ccc(Cl)c(Cl)c2)C(C(=O)/C=C/c2ccc(Cl)c(Cl)c2)C1 (stereo not shown) [Compound 10c]
- IC50 (L1210 cells): 21.4 µM
- activity relative to compound 12c, human tumors (human tumors [11]): 4.36 times
- IC50 (CEM cells): 16.5 µM
- TIL1210 (CEM cells) (CEM cells): 0.77
- TIP388 (CEM cells) (CEM cells): 25.78
- TIht (CEM cells) (CEM cells): 7.53
- TIL1210 (Molt 4/C8 cells) (Molt 4/C8 cells): 1.12
- TIP388 (Molt 4/C8 cells) (Molt 4/C8 cells): 37.56
- TIht (Molt 4/C8 cells) (Molt 4/C8 cells; IC50 T-lymphocytes (Molt 4/C8)/IC50 human tumors): 10.98
- IC50 (Molt 4/C8 cells): 24 µM
- IC50 (P388 cells): 0.64 µM
- IC50 (human tumors [10]): 2.19 µM

Compound: CCN1CCC(O)(/C=C/c2ccc(C)c(C)c2)C(C(=O)/C=C/c2ccc(C)c(C)c2)C1 (stereo not shown) [Compound 13b]
- IC50 (L1210 cells): 20.9 µM
- IC50 (CEM cells): 30.8 µM
- TIL1210 (CEM cells) (CEM cells): 1.47
- TIP388 (CEM cells) (CEM cells): 11.89
- TI (murine leukemia cells vs T-lymphocytes; printed TIht) compared with compound d (Molt 4/C8 cells): lower
- TIht compared with compound 9d (Molt 4/C8 cells): greater than compound 9d
- TIL1210 (Molt 4/C8 cells) (Molt 4/C8 cells): 0.67
- TIP388 (Molt 4/C8 cells) (Molt 4/C8 cells): 5.41
- IC50 (Molt 4/C8 cells): 14 ± 8.6 µM
- cytotoxicity compared with compound 9d (P388 cells; Table 3 screens): comparable cytotoxicity to compound 9d
- IC50 (P388 cells): 2.59 µM
- selective/preferential cytotoxicity towards colon cancer cells (human tumors [10]; human tumor screen): neither 13a,b displayed selective toxicity for colon cancers

Compound: CCC(C)n1ncn(-c2ccc(N3CCN(c4ccc(OCC5COC(Cn6cncn6)(c6ccc(Cl)cc6Cl)O5)cc4)CC3)cc2)c1=O (stereo not shown) [Itraconazole]
- killing at 5 µM [2]: 85%
- MIC (Aspergillus fumigatus [4]; read-out: MIC Mean ± SD): 0.53 ± 0.16 µM (≈ 0.374 µg/mL)
- MIC (Aspergillus fumigatus [4]; read-out: MIC Range): 0.18 to 0.72 µM (≈ 0.127 to 0.508 µg/mL)
- MIC ([5]; read-out: MIC Mean ± SD): 0.82 ± 0.35 µM (≈ 0.579 µg/mL)
- MIC ([5]; read-out: MIC Range): 0.32 to 1.29 µM (≈ 0.226 to 0.91 µg/mL)
- MIC ([6]; read-out: MIC Mean ± SD): 17.2 ± 5.83 µM (≈ 12.2 µg/mL)
- MIC ([6]; read-out: MIC Range): 5.19 to 20.8 µM (≈ 3.66 to 14.7 µg/mL)

Compound: O=P1(N(CCCl)CCCl)NCCCO1 (stereo not shown) [cyclophosphamide]
- activity towards COLO 205 xenograft (COLO 205 [12]): inactive
- activity towards SW-620 xenograft (SW-620): inactive
- activity towards NCI-H522 xenograft (NCI-H522): inactive
- reduction of growth of LOX IMVI tumor (LOX IMVI): 100-150%
- reduction of growth of CAKI-1 tumor (CAKI-1 [13]): 60-100%

Compound: OC(Cn1cncn1)(Cn1cncn1)c1ccc(F)cc1F [fluconazole]
- mean MIC (Candida albicans): approximately 0.8 μm

Compound: N[C@@H](Cc1ccc(N(CCCl)CCCl)cc1)C(=O)O [melphalan, reference compound]
- IC50 (human Jurkat T cells [14]): 1.16 µM
- DNA ladder / DNA fragmentation (human Jurkat T cells [15]): A faint DNA ladder could be seen
- TIL1210 (CEM cells) (CEM cells): 1.16
- TIP388 (CEM cells) (CEM cells): 11.23
- TIht (CEM cells) (CEM cells): 0.09
- IC50 (human tumors [10]): 26.3 µM
- time after which apoptotic effects were detectable (human Jurkat T cells [16]): 3 h
- percentage of apoptotic cells (human Jurkat T cells [16]; 10 μM, 17 hours, control 4.4%): 24%
- death of treated cells (human Jurkat T cells [16]; 48 hours): all the treated cells had died
